From PubChem BioAssay AID248 (DTP/NCI, 2004)
“And” between values parts separate entries of the source, which are not always exact repeats. Identical values can stand only once. Toxic doses and inconclusive results are not listed. No stated cut-off is given here; in the data, active means T/C of 150% or more; inactive means T/C below 125%.

System: L1210 leukemia ip in BDF1 mice, survival T/C
Test: NCI In Vivo Anticancer Drug Screen. Data for tumor model L1210 Leukemia (intraperitoneal) in B6D2F1 (BDF1) mice
Conditions: endpoint: mean survival time, higher = longer survival
Summary of the method: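 Antitumor effect is assessed in tumor-bearing animals. Survival in the compound arm is compared with a vehicle-dosed control arm and expressed as their quotient.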

[1] = dose: 100.0 mg/kg/injection, schedule: Q04DX003 (ip), vehicle: saline with Tween-80
[2] = dose: 200.0 mg/kg/injection, schedule: Q04DX003 (ip), vehicle: saline with Tween-80
[3] = dose: 400.0 mg/kg/injection, schedule: Q04DX003 (ip), vehicle: saline with Tween-80
[4] = dose: 25.0 mg/kg/injection, schedule: Q01DX009 (ip), vehicle: Klucel (hydroxypropylcellulose) (HPC)
[5] = dose: 50.0 mg/kg/injection, schedule: Q01DX009 (ip), vehicle: Klucel (hydroxypropylcellulose) (HPC)
[6] = dose: 100.0 mg/kg/injection, schedule: Q01DX009 (ip), vehicle: Klucel (hydroxypropylcellulose) (HPC)
[7] = dose: 100.0 mg/kg/injection, schedule: Q01DX009 (ip), vehicle: saline with Tween-80
[8] = dose: 200.0 mg/kg/injection, schedule: Q01DX009 (ip), vehicle: saline with Tween-80
[9] = dose: 400.0 mg/kg/injection, schedule: Q01DX009 (ip), vehicle: saline with Tween-80
[10] = dose: 100.0 mg/kg/injection, schedule: Q01DX001 (ip), vehicle: saline
[11] = dose: 200.0 mg/kg/injection, schedule: Q01DX001 (ip), vehicle: saline
[12] = dose: 400.0 mg/kg/injection, schedule: Q01DX001 (ip), vehicle: saline
[13] = dose: 100.0 mg/kg/injection, schedule: Q04DX002 (ip), vehicle: saline with Tween-80
[14] = dose: 200.0 mg/kg/injection, schedule: Q04DX002 (ip), vehicle: saline with Tween-80

Measured: T/C

COC(=O)C(N)CO (stereo not drawn)
inactive: [1] 105 % of control | [2] 105 % of control | [3] 91 % of control

OCC1(CO)CC=CCC1
inactive: dose: 25.0 mg/kg/injection, schedule: Q04DX003 (ip), vehicle: saline 95 % of control | dose: 50.0 mg/kg/injection, schedule: Q04DX003 (ip), vehicle: saline 105 % of control | dose: 100.0 mg/kg/injection, schedule: Q01DX001 (ip), vehicle: carboxymethylcellulose (CMC) 103 % of control | dose: 100.0 mg/kg/injection, schedule: Q04DX003 (ip), vehicle: saline 94 % of control and 89 % of control | dose: 200.0 mg/kg/injection, schedule: Q01DX001 (ip), vehicle: carboxymethylcellulose (CMC) 95 % of control | dose: 400.0 mg/kg/injection, schedule: Q01DX001 (ip), vehicle: carboxymethylcellulose (CMC) 103 % of control

S=C(NCc1ccc(Cl)cc1Cl)Nc1ccccc1
inactive: [4] 101 % of control | [5] 98 % of control | [6] 103 % of control and 109 % of control | dose: 200.0 mg/kg/injection, schedule: Q01DX009 (ip), vehicle: Klucel (hydroxypropylcellulose) (HPC) 88 % of control

CCC(C)c1ccc(O)c(C(C)CC)c1 (stereo not drawn)
inactive: [7] 106 % of control | [1] 106 % of control | [8] 101 % of control | [2] 101 % of control | [9] 102 % of control | [3] 94 % of control

CN(C)S(=O)(=O)c1ccc(NC(=O)OC2CCCCCC2)cc1
inactive: [10] 91 % of control | [11] 94 % of control | [12] 91 % of control

COc1cccc(N=CC(=O)c2ccc(C)cc2)c1
inactive: dose: 75.0 mg/kg/injection, schedule: Q04DX003 (ip), vehicle: Klucel (hydroxypropylcellulose) (HPC) 95 % of control | dose: 150.0 mg/kg/injection, schedule: Q04DX003 (ip), vehicle: Klucel (hydroxypropylcellulose) (HPC) 89 % of control

c1ccc2c(CCCc3nccc4ccccc34)nccc2c1
inactive: dose: 100.0 mg/kg/injection, schedule: Q01DX001 (ip), vehicle: Klucel (hydroxypropylcellulose) (HPC) 102 % of control | dose: 100.0 mg/kg/injection, schedule: Q04DX003 (ip), vehicle: Klucel (hydroxypropylcellulose) (HPC) 108 % of control | dose: 200.0 mg/kg/injection, schedule: Q01DX001 (ip), vehicle: Klucel (hydroxypropylcellulose) (HPC) 104 % of control | dose: 200.0 mg/kg/injection, schedule: Q04DX003 (ip), vehicle: Klucel (hydroxypropylcellulose) (HPC) 108 % of control | dose: 400.0 mg/kg/injection, schedule: Q01DX001 (ip), vehicle: Klucel (hydroxypropylcellulose) (HPC) 108 % of control | dose: 400.0 mg/kg/injection, schedule: Q04DX003 (ip), vehicle: Klucel (hydroxypropylcellulose) (HPC) 102 % of control

CC#CCOCC(O)CCl (stereo not drawn)
inactive: dose: 100.0 mg/kg/injection, schedule: Q01DX009 (ip), vehicle: saline 94 % of control | dose: 100.0 mg/kg/injection, schedule: Q04DX003 (ip), vehicle: saline sonified 108 % of control | dose: 200.0 mg/kg/injection, schedule: Q01DX009 (ip), vehicle: saline 91 % of control | dose: 200.0 mg/kg/injection, schedule: Q04DX003 (ip), vehicle: saline sonified 103 % of control | dose: 400.0 mg/kg/injection, schedule: Q01DX009 (ip), vehicle: saline 105 % of control | dose: 400.0 mg/kg/injection, schedule: Q04DX003 (ip), vehicle: saline sonified 117 % of control

CC12CCC(O)(CC1)CC2=O
inactive: dose: 75.0 mg/kg/injection, schedule: Q04DX002 (ip), vehicle: saline 95 % of control | dose: 150.0 mg/kg/injection, schedule: Q04DX002 (ip), vehicle: saline 95 % of control | dose: 300.0 mg/kg/injection, schedule: Q04DX002 (ip), vehicle: saline 103 % of control

Cc1cccn(C)c1=O
inactive: [10] 95 % of control | [11] 101 % of control | [12] 96 % of control

O=c1[nH]cc(CC(F)(F)C(F)(F)F)c(=O)[nH]1
inactive: dose: 50.0 mg/kg/injection, schedule: Q01DX005 (ip), vehicle: other 87 % of control

CSc1ccc(OC(=O)Nc2ccc(Cl)cc2)cc1
inactive: dose: 100.0 mg/kg/injection, schedule: Q01DX001 (ip), vehicle: saline with Tween-80 95 % of control | [7] 104 % of control and 106 % of control | dose: 100.0 mg/kg/injection, schedule: Q04DX002 (ip), vehicle: Klucel (hydroxypropylcellulose) (HPC) 103 % of control | [13] 98 % of control | [1] 93 % of control | dose: 200.0 mg/kg/injection, schedule: Q01DX001 (ip), vehicle: saline with Tween-80 106 % of control | [8] 102 % of control and 104 % of control | dose: 200.0 mg/kg/injection, schedule: Q04DX002 (ip), vehicle: Klucel (hydroxypropylcellulose) (HPC) 103 % of control | [14] 90 % of control | [2] 95 % of control | dose: 400.0 mg/kg/injection, schedule: Q01DX001 (ip), vehicle: saline with Tween-80 90 % of control | [9] 100 % of control and 117 % of control | dose: 400.0 mg/kg/injection, schedule: Q04DX002 (ip), vehicle: Klucel (hydroxypropylcellulose) (HPC) 92 % of control | dose: 400.0 mg/kg/injection, schedule: Q04DX002 (ip), vehicle: saline with Tween-80 98 % of control | [3] 98 % of control

Cc1cc(C)c(-n2c(C)nc3ccccc3c2=O)c([N+](=O)[O-])c1
inactive: dose: 12.5 mg/kg/injection, schedule: Q01DX009 (ip), vehicle: Klucel (hydroxypropylcellulose) (HPC) 96 % of control | [4] 104 % of control | [5] 89 % of control | [6] 109 % of control

CCC(O)C(CCN(C)C)(C(=O)N(C)C)c1ccccc1 (stereo not drawn)
inactive: dose: 75.0 mg/kg/injection, schedule: Q01DX001 (ip), vehicle: saline 98 % of control | dose: 150.0 mg/kg/injection, schedule: Q01DX001 (ip), vehicle: saline 100 % of control

COc1ccccc1/C1=C/CCCCCC1
inactive: dose: 50.0 mg/kg/injection, schedule: Q01DX009 (ip), vehicle: acetone 90 % of control | dose: 100.0 mg/kg/injection, schedule: Q01DX009 (ip), vehicle: acetone 88 % of control | dose: 100.0 mg/kg/injection, schedule: Q04DX003 (ip), vehicle: acetone 100 % of control | dose: 200.0 mg/kg/injection, schedule: Q01DX009 (ip), vehicle: acetone 87 % of control | dose: 200.0 mg/kg/injection, schedule: Q04DX003 (ip), vehicle: acetone 92 % of control | dose: 400.0 mg/kg/injection, schedule: Q04DX003 (ip), vehicle: acetone 89 % of control

COc1cc2ccc3c(c2cc1OC)C=NCC3
inactive: dose: 1.56 mg/kg/injection, schedule: Q04DX003 (ip), vehicle: saline 107 % of control | dose: 3.13 mg/kg/injection, schedule: Q01DX009 (ip), vehicle: saline 109 % of control | dose: 3.13 mg/kg/injection, schedule: Q04DX003 (ip), vehicle: saline 102 % of control | dose: 6.25 mg/kg/injection, schedule: Q01DX009 (ip), vehicle: saline 105 % of control | dose: 6.25 mg/kg/injection, schedule: Q04DX003 (ip), vehicle: saline 97 % of control | dose: 12.5 mg/kg/injection, schedule: Q04DX003 (ip), vehicle: saline 87 % of control

CCN(CC)c1ccc(NCN2C(=O)c3ccccc3C2=O)c(C)c1
inactive: [13] 97 % of control | [14] 111 % of control
